According to patent publication US9278978B2, “6-Alkynyl Pyridine” (Boehringer Ingelheim International GmbH, priority 2013, dated 2016):
Like-named read-outs stand apart in the source and are kept apart here.

Molecular target: cIAP1 BIR3 (Homo sapiens (Human), UniProt Q13490)
Test: cIAP1 BIR3 binding assay (DELFIA), BIR3 domain-SMAC peptide interaction
Protocol: XIAP BIR3 and cIAP1 BIR3 Binding Assays (DELFIA)
Peptide […]-Lys(Biotin), representing the N-terminus of mature human SMAC(SMAC peptide), was used as interaction partner in the protein-peptide interaction assay.
BIR3 domains (10 nM) were incubated with SMAC peptide (10 nM) in assay buffer (50 mM Tris, 120 mM NaCl, 0.1% BSA, 1 mM DTT, 0.05% TritonX100) for one hour at room temperature in the presence of inhibitory compounds. The assay mixture was transferred to a strepatvidin coated plate and incubated for one hour at room temperature to allow binding of the biotinylated peptide and associated BIR3 domains to the plate. After several washing steps Eu labeled anti-GST antibody (e.g. Perkin Elmer DELFIA Eu-N1-antiGST AD0250) was added to detect BIR3 domain-SMAC peptide interactions according to Perkin Elmer's instructions. […] Time resolved Europium fluorescence was measured in a Wallac Victor using Standard assay settings.
DELFIA assay results were plotted against compound concentrations and Software GraphPad Prizm was used to calculate half maximal inhibitory concentrations (IC50 values).

[1] = BIR3 domain 10 nM, SMAC peptide 10 nM, (S)-isomer (examples 1-34, 38-43) or racemate (examples 35-37), read-out: cIAP1 BIR-3 IC50

Row | Compound | IC50 [1] | IC50
1 | CNC(C)C(=O)Nc1cc(-c2nc(C)nc3c(C)nn(C)c23)cc(C#Cc2ccc3c(ccc(=O)n3C)c2)n1 (stereo not drawn) [Example 15, N-{6-[2-(1-methyl-2-oxo-1,2-dihydroquinolin-6-yl)ethynyl]-4-{trimethyl-1H-pyrazolo[4,3-d]pyrimidin-7-yl}pyridin-2-yl}-2-(methylamino)propanamide] | 1 nM | 
2 | CNC(C)C(=O)Nc1cc(-c2ncnc3c(C)nn(C)c23)cc(C#Cc2cc(F)c3ncccc3c2)n1 (stereo not drawn) [Example 42, N-(4-{1,3-dimethyl-1H-pyrazolo[4,3-d]pyrimidin-7-yl}-6-[2-(8-fluoroquinolin-6-yl)ethynyl]pyridin-2-yl)-2-(methylamino)propanamide] | 1 nM | 
3 | CNC(C)C(=O)Nc1cc(-c2ccncc2)c(-c2cncnc2)c(C#Cc2ccccc2)n1 (racemic) [Example 35, 2-(methylamino)-N-[6-(2-phenylethynyl)-4-(pyridin-4-yl)-5-(pyrimidin-5-yl)pyridin-2-yl]propanamide] | 250 nM | 
4 | CNC(C)C(=O)Nc1cc(-c2cccc3nc(C)c(C)n23)cc(C#Cc2ccc3c(C)nccc3c2)n1 (stereo not drawn) [Example 11, N-(4-{2,3-dimethylimidazo[1,2-a]pyridin-5-yl}-6-[2-(1-methylisoquinolin-6-yl)ethynyl]pyridin-2-yl)-2-(methylamino)propanamide] | 1 nM | 
5 | CNC(C)C(=O)Nc1cc(-c2ccncc2)cc(C#Cc2ccccc2)n1 (stereo not drawn) [Example 28, 2-(methylamino)-N-[6-(2-phenylethynyl)-4-(pyridin-4-yl)pyridin-2-yl]propanamide] | 282 nM | 
6 | CNC(C)C(=O)Nc1cc(-c2nc(C)nc3nn(C)c(C)c23)cc(C#Cc2cnc(-n3cnc(C)c3)nc2)n1 (stereo not drawn) [Example 21, N-(6-{2-[2-(4-methyl-1H-imidazol-1-yl)pyrimidin-5-yl]ethynyl}-4-{trimethyl-2H-pyrazolo[3,4-d]pyrimidin-4-yl}pyridin-2-yl)-2-(methyl-amino)propanamide] | 1 nM | 
7 | CNC(C)C(=O)Nc1cc(-c2ncnc3ncn(C)c23)cc(C#Cc2ccc3c(C)nccc3c2)n1 (stereo not drawn) [Example 6, N-[4-(7-methyl-7H-purin-6-yl)-6-[2-(1-methylisoquinolin-6-yl)ethynyl]pyridin-2-yl]-2-(methylamino)propanamide] |  | 1 nM
8 | CNC(C)C(=O)Nc1cc(-c2c(C)nc(C)c3c(=O)n(C)n(C)c23)cc(C#Cc2ccc3c(C)nccc3c2)n1 (stereo not drawn) [Example 14, 2-(methylamino)-N-{6-[2-(1-methylisoquinolin-6-yl)ethynyl]-4-{1,2,4,6-tetramethyl-3-oxo-1H,2H,3H-pyrazolo[4,3-c]pyridin-7-yl}pyridin-2-yl}propanamide] | 1 nM | 
9 | CNC(C)C(=O)Nc1cc(-c2ncnc3c(C)nn(C)c23)cc(C#Cc2ccc3c(cnn3C)c2)n1 (stereo not drawn) [Example 1, N-(4-{1,3-dimethyl-1H-pyrazolo[4,3-d]pyrimidin-7-yl}-6-[2-(1-methyl-1H-indazol-5-yl)ethynyl]pyridin-2-yl)-2-(methylamino)propanamide] | 1 nM | 
10 | CNC(C)C(=O)Nc1cc(-c2ccc(OC)nc2)cc(C#Cc2ccccc2)n1 (stereo not drawn) [Example 31, N-[4-(6-methoxypyridin-3-yl)-6-(2-phenylethynyl)pyridin-2-yl]-2-(methylamino)propanamide] | 325 nM | 
11 | CNC(C)C(=O)Nc1cc(-c2ncnc3c(C)nn(C)c23)cc(C#Cc2ccc(-n3cnc(C)c3)cc2)n1 (stereo not drawn) [Example 41, N-(4-{1,3-dimethyl-1H-pyrazolo[4,3-d]pyrimidin-7-yl}-6-{2-[4-(4-methyl-1H-imidazol-1-yl)phenyl]-ethynyl}pyridin-2-yl)-2-(methylamino)propanamide] | 1 nM | 
12 | CNC(C)C(=O)Nc1cc(-c2ccccc2F)cc(C#Cc2ccccc2)n1 (stereo not drawn) [Example 32, N-[4-(2-fluorophenyl)-6-(2-phenylethynyl)pyridin-2-yl]-2-(methylamino)propanamide] | 4010 nM | 
13 | CNC(C)C(=O)Nc1cc(-c2ncnc3c(C)nn(C)c23)cc(C#Cc2ccn3c(C)ncc3c2)n1 (stereo not drawn) [Example 4, N-(4-{1,3-dimethyl-1H-pyrazolo[4,3-d]pyrimidin-7-yl}-6-(2-{3-methylimidazo[1,5-a]pyridin-7-yl}ethynyl)pyridin-2-yl)-2-(methylamino)propanamide] | 1 nM | 
14 | CNC(C)C(=O)Nc1cc(-c2nc(C)nc3nn(C)c(C)c23)cc(C#Cc2cccs2)n1 (stereo not drawn) [Example 22, 2-(methylamino)-N-{6-[2-(thiophen-2-yl)ethynyl]-4-{trimethyl-2H-pyrazolo[3,4-d]pyrimidin-4-yl}pyridin-2-yl}propanamide] | 1 nM | 
15 | CNC(C)C(=O)Nc1cc(-c2ncnc3c(C)nn(C)c23)cc(C#Cc2cc(C)nc(C)c2)n1 (stereo not drawn) [Example 39, N-(4-{1,3-dimethyl-1H-pyrazolo[4,3-d]pyrimidin-7-yl}-6-[2-(2,6-dimethyl-pyridin-4-yl)ethynyl]pyridin-2-yl)-2-(methylamino)-propanamide] | 1 nM | 
16 | CNC(C)C(=O)Nc1cc(-c2cncc(F)c2)cc(C#Cc2ccccc2)n1 (stereo not drawn) [Example 29, N-[4-(5-fluoropyridin-3-yl)-6-(2-phenylethynyl)pyridin-2-yl]-2-(methylamino)propanamide] | 127 nM | 
17 | CNC(C)C(=O)Nc1cc(-c2cccc3ncccc23)c(OC)c(C#Cc2ccccc2)n1 (stereo not drawn) [Example 27, N-[5-methoxy-6-(2-phenylethynyl)-4-(quinolin-5-yl)pyridin-2-yl]-2-(methyl-amino)propanamide] | 136 nM | 
18 | CNC(C)C(=O)Nc1cc(-c2cccc3cnn(C)c23)c(Cl)c(C#Cc2ccc3c(C)nccc3c2)n1 (stereo not drawn) [Example 24, N-[5-chloro-4-(1-methyl-1H-indazol-7-yl)-6-[2-(1-methylisoquinolin-6-yl)ethynyl]pyridin-2-yl]-2-(methylamino)propanamide] | 12 nM | 
19 | CNC(C)C(=O)Nc1cc(-c2c(OC)ccc3nc(C)ccc23)cc(C#Cc2ccccc2)n1 (stereo not drawn) [Example 5, N-[4-(6-methoxy-2-methylquinolin-5-yl)-6-(2-phenylethynyl)pyridin-2-yl]-2-(methylamino)propanamide] | 59 nM | 
20 | CNC(C)C(=O)Nc1cc(-c2ncnc3c(C)nn(C)c23)cc(C#Cc2cc(C)nc3c(F)cccc23)n1 (stereo not drawn) [Example 3, N-(4-{1,3-dimethyl-1H-pyrazolo[4,3-d]pyrimidin-7-yl}-6-[2-(8-fluoro-2-methylquinolin-4-yl)ethynyl]pyridin-2-yl)-2-(methylamino)propanamide] | 1 nM | 
21 | CNC(C)C(=O)Nc1cc(-c2cccc3cnn(C)c23)cc(C#Cc2ccc3c(c2)CC(=O)N3C)n1 (stereo not drawn) [Example 12, N-[4-(1-methyl-1H-indazol-7-yl)-6-[2-(1-methyl-2-oxo-2,3-dihydro-1H-indol-5-yl)ethynyl]pyridin-2-yl]-2-(methylamino)propanamide] | 11 nM | 
22 | CNC(C)C(=O)Nc1cc(-c2ncnc3c(C)nn(C)c23)cc(C#Cc2ccc3nc(C)ccc3c2)n1 (stereo not drawn) [Example 38, N-(4-{1,3-dimethyl-1H-pyrazolo[4,3-d]pyrimidin-7-yl}-6-[2-(2-methylquinolin-6-yl)ethynyl]pyridin-2-yl)-2-(methylamino)propanamide] | 1 nM | 
23 | CNC(C)C(=O)Nc1cc(-c2cccc3cnn(C)c23)c(OC)c(C#Cc2ccccc2)n1 (stereo not drawn) [Example 26, N-[5-methoxy-4-(1-methyl-1H-indazol-7-yl)-6-(2-phenylethynyl)pyridin-2-yl]-2-(methylamino)propanamide] | 12 nM | 
24 | CNC(C)C(=O)Nc1cc(-c2cccnc2)cc(C#Cc2ccccc2)n1 (stereo not drawn) [Example 34, 2-(methylamino)-N-[6-(2-phenyethynyl)-4-(pyridin-3-yl)pyridin-2-yl]propanamide] | 250 nM | 
25 | CNC(C)C(=O)Nc1cc(-c2cccnc2)c(-c2cncnc2)c(C#Cc2ccccc2)n1 (racemic) [Example 36, 2-(methylamino)-N-[6-(2-phenylethynyl)-4-(pyridin-3-yl)-5-(pyrimidin-5-yl)-pyridin-2-yl]propanamide] | 172 nM | 
26 | CNC(C)C(=O)Nc1cc(-c2cnc3cccc(C)n23)cc(C#Cc2ccc3c(C)nccc3c2)n1 (stereo not drawn) [Example 13, 2-(methylamino)-N-(4-{5-methylimidazo[1,2-a]pyridin-3-yl}-6-[2-(1-methylisoquinolin-6-yl)ethynyl]pyridin-2-yl)propanamide] | 1 nM | 
27 | CNC(C)C(=O)Nc1cc(-c2ncnc3c(C)nn(C)c23)cc(C#Cc2ccc3c(C)nccc3c2)n1 (stereo not drawn) [Example 2, N-(4-{1,3-dimethyl-1H-pyrazolo[4,3-d]pyrimidin-7-yl}-6-[2-(1-methylisoquinolin-6-yl)ethynyl]pyridin-2-yl)-2-(methylamino)propanamide] | 1 nM | 
28 | CNC(C)C(=O)Nc1cc(-c2ncnc3c(C)nn(C)c23)cc(C#Cc2cc(F)cc(F)c2)n1 (stereo not drawn) [Example 40, N-{6-[2-(3,5-difluorophenyl)ethynyl]-4-{1,3-dimethyl-1H-pyrazolo[4,3-d]pyrimidin-7-yl}pyridin-2-yl}-2-(methyl-amino)propanamide] | 1 nM | 
29 | CNC(C)C(=O)Nc1cc(-c2ncnc3ncn(C)c23)cc(C#Cc2ccc(-n3cnc(C)c3)cc2)n1 (stereo not drawn) [Example 9, N-(6-{2-[4-(4-methyl-1H-imidazol-1-yl)phenyl]ethynyl}-4-(7-methyl-7H-purin-6-yl)pyridin-2-yl)-2-(methylamino)propanamide] |  | 2 nM
30 | CCNC(CC)C(=O)Nc1cc(-c2ncnc3c(C)nn(C)c23)cc(C#Cc2ccc3c(C)nccc3c2)n1 (racemic) [Example 37, N-(4-{1,3-dimethyl-1H-pyrazolo[4,3-d]pyrimidin-7-yl}-6-[2-(1-methylisoquinolin-6-yl)ethynyl]pyridin-2-yl)-2-(ethylamino)butanamide] | 6 nM | 
